Experimental data from PMC11532494 (Nature Communications, 2024).
“And” between values parts separate entries of the source, which are not always exact repeats. Identical values can stand only once. Like-named read-outs stand apart in the source and are kept apart here. No end group written: not given here. *: point of attachment. AMC = Cc1cc(=O)oc2cc(N*)ccc12

Tests used:
VsHdaH (1b) = format: biochemical, Vibrio sp.; conditions: VKDAC
VcHdaH (5b) = format: biochemical, Vibrio cholerae; conditions: VcHdaH (5b); for [AMC]: Transform RFU in [AMC]
RsPrpH (1b) = assay: Substrate screening assay (acyl-peptide-AMC); format: biochemical, Rhizorhabdus sp.; conditions: RsPrpH (1b); for [AMC]: Transform RFU in [AMC]
RwDmhA (1b) = RwDmhA (1b) (Rhizorhabdus wittichii, UniProt A0A067XIQ6); format: biochemical; conditions: RwDmhA (1b)
KpHdaH (1b) = KpHdaH (1b) (Klebsiella pneumoniae, UniProt A0A377Z5F6); format: biochemical; conditions: KpHdaH (1b)
BsAcuC (2c) = target: T1, BsAcuC (2c) (Bacillus subtilis, UniProt P39067); assay: Substrate screening assay (acyl-peptide-AMC); format: biochemical; conditions: BsAcuC (2c); for [AMC]: Transform RFU in [AMC]
T1 construct: made in house; host or cells: E. coli BL21 (DE3)
T1 sequence (P39067 1-387): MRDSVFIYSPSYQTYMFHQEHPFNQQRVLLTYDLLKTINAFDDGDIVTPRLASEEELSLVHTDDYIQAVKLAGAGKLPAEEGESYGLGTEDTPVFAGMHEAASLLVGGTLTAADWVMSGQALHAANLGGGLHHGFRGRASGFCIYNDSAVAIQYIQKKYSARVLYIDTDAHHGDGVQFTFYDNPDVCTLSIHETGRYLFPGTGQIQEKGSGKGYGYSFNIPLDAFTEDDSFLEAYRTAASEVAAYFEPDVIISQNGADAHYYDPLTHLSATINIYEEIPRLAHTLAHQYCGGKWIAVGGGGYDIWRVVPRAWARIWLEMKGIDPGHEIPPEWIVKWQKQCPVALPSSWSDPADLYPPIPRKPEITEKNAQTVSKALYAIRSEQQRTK
Experimental: (§1) Experiments with SIRT2 and SIRT5 were supplemented with NAD^+ (500 µM). Thereafter, a solution of trypsin (25 µL, 5.0 mg/mL; final concentration of 2.5 mg/mL) was added, and the development of the assay was allowed to proceed for 90 min at room temperature before fluorescence analysis. […] To this end, a single category is given to all conversions >48% on the heatmap. […] For the H4-derived peptide LGKbio no positive control was available.

PsApaH (4) = PsApaH (4) (Pseudomonas sp. M30-35, UniProt A0A1Y0KY79); format: biochemical; conditions: PsApaH (4)
Experimental: as §1

Controls = assay: Substrate screening assay (acyl-peptide-AMC), control enzymes; format: biochemical; conditions: for [AMC]: Transform RFU in [AMC]
[1] = Transform RFU*2, Controls, Sample 1
[2] = Transform RFU*2, Controls, Sample 2

Row | Substance | Relative Fluorescene Units (RFU) (VsHdaH (1b); Transform RFU*2, Sample 1) | Relative Fluorescene Units (RFU) (VsHdaH (1b); Transform RFU*2, Sample 2) | Relative Fluorescene Units (RFU) (VsHdaH (1b); Sample 1) | Relative Fluorescene Units (RFU) (VsHdaH (1b); Sample 2) | [AMC] (VcHdaH (5b); Sample 1) [nM] | [AMC] (VcHdaH (5b); Sample 2) [nM] | Relative Fluorescene Units (RFU) (VcHdaH (5b); Transform RFU*2, Sample 1) | Relative Fluorescene Units (RFU) (VcHdaH (5b); Transform RFU*2, Sample 2) | Relative Fluorescene Units (RFU) (VcHdaH (5b); Sample 1) | Relative Fluorescene Units (RFU) (VcHdaH (5b); Sample 2) | Relative Fluorescene Units (RFU) (RsPrpH (1b); Sample 1) | Relative Fluorescene Units (RFU) (RsPrpH (1b); Sample 2) | [AMC] (RsPrpH (1b); Sample 1) [nM] | [AMC] (RsPrpH (1b); Sample 2) [nM] | Relative Fluorescene Units (RFU) (RsPrpH (1b); Transform RFU*2, Sample 1) | Relative Fluorescene Units (RFU) (RsPrpH (1b); Transform RFU*2, Sample 2) | Relative Fluorescene Units (RFU) (RwDmhA (1b); Sample 1) | Relative Fluorescene Units (RFU) (RwDmhA (1b); Sample 2) | Relative Fluorescene Units (RFU) (RwDmhA (1b); Transform RFU*2, Sample 1) | Relative Fluorescene Units (RFU) (RwDmhA (1b); Transform RFU*2, Sample 2) | further results
1 | QPKKoct (QPKK-{AMC}; not fully specified (residue 4); printed as QPKKoct; also: octanoyl-lysine (which Lys not given here); UniProt P04637 317-320, looked up, fragment) | 248 | 194 | 124 | 97 | 67.38 | 71.29 | 138 | 146 | 69 | 73 | 4 | 72 | 3.91 | 70.31 | 8 | 144 | 53 | 75 | 106 | 150 | Relative Fluorescene Units (RFU) (KpHdaH (1b); Sample 1): -13 RFU; Relative Fluorescene Units (RFU) (KpHdaH (1b); Sample 2): -43 RFU; Relative Fluorescene Units (RFU) (KpHdaH (1b); Transform RFU*2, Sample 1): -26 RFU; Relative Fluorescene Units (RFU) (KpHdaH (1b); Transform RFU*2, Sample 2): -86 RFU; Relative Fluorescene Units (RFU) (BsAcuC (2c); Sample 1): 2401 RFU; Relative Fluorescene Units (RFU) (BsAcuC (2c); Sample 2): 1622 RFU; [AMC] (BsAcuC (2c); Sample 1): 2344.73 nM; [AMC] (BsAcuC (2c); Sample 2): 1583.98 nM; Relative Fluorescene Units (RFU) (BsAcuC (2c); Transform RFU*2, Sample 1): 4802 RFU; Relative Fluorescene Units (RFU) (BsAcuC (2c); Transform RFU*2, Sample 2): 3244 RFU; Relative Fluorescene Units (RFU) (PsApaH (4); Sample 1): 88 RFU; Relative Fluorescene Units (RFU) (PsApaH (4); Sample 2): 73 RFU; Relative Fluorescene Units (RFU) (PsApaH (4); Transform RFU*2, Sample 1): 176 RFU; Relative Fluorescene Units (RFU) (Controls): 6579 RFU and 10102 RFU; [AMC] (Controls; Controls, Sample 1): 6.4248 µM; [AMC] (Controls; Controls, Sample 2): 9.86523 µM; Relative Fluorescene Units (RFU) (Controls; [1]): 13158 RFU; Relative Fluorescene Units (RFU) (Controls; [2]): 20204 RFU
2 | QPKKmyr (QPKK-{AMC}; not fully specified (residue 4); printed as QPKKmyr; also: myristoyl-lysine (which Lys not given here); UniProt P04637 317-320, looked up, fragment) | 354 | -1178 | 177 | -589 | -96.68 | -269.53 | -198 | -552 | -99 | -276 | -108 | -824 | -105.47 | -804.69 | -216 | -1648 | -346 | -865 | -692 | -1730 | Relative Fluorescene Units (RFU) (KpHdaH (1b); Sample 1): 178 RFU; Relative Fluorescene Units (RFU) (KpHdaH (1b); Sample 2): 116 RFU; Relative Fluorescene Units (RFU) (KpHdaH (1b); Transform RFU*2, Sample 1): 356 RFU; Relative Fluorescene Units (RFU) (KpHdaH (1b); Transform RFU*2, Sample 2): 232 RFU; Relative Fluorescene Units (RFU) (BsAcuC (2c); Sample 1): 313 RFU; Relative Fluorescene Units (RFU) (BsAcuC (2c); Sample 2): 767 RFU; [AMC] (BsAcuC (2c); Sample 1): 305.66 nM; [AMC] (BsAcuC (2c); Sample 2): 749.02 nM; Relative Fluorescene Units (RFU) (BsAcuC (2c); Transform RFU*2, Sample 1): 626 RFU; Relative Fluorescene Units (RFU) (BsAcuC (2c); Transform RFU*2, Sample 2): 1534 RFU; Relative Fluorescene Units (RFU) (PsApaH (4); Sample 1): 40 RFU; Relative Fluorescene Units (RFU) (PsApaH (4); Sample 2): 113 RFU; Relative Fluorescene Units (RFU) (PsApaH (4); Transform RFU*2, Sample 1): 80 RFU; Relative Fluorescene Units (RFU) (PsApaH (4); Transform RFU*2, Sample 2): 226 RFU; Relative Fluorescene Units (RFU) (Controls): 6155 RFU and 7393 RFU; [AMC] (Controls; Controls, Sample 1): 6.01074 µM; [AMC] (Controls; Controls, Sample 2): 7.21973 µM; Relative Fluorescene Units (RFU) (Controls; [1]): 12310 RFU; Relative Fluorescene Units (RFU) (Controls; [2]): 14786 RFU
